Measurements from PubChem BioAssay (NCI).
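These data come from cells grown in 96-well plates and exposed to compound for 48 hours at five concentrations. TGI: total growth inhibition.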

What was measured:
Experiment in all cases: NCI anticancer screen, dose series, 48 h
SK-MEL-2 melanoma = test system: SK-MEL-2 melanoma
SF-295 CNS = test system: SF-295 CNS
SF-268 CNS = test system: SF-268 CNS
SK-OV-3 ovarian = test system: SK-OV-3 ovarian
OVCAR-4 ovarian = test system: OVCAR-4 ovarian
OVCAR-8 ovarian = test system: OVCAR-8 ovarian
SK-MEL-5 melanoma = test system: SK-MEL-5 melanoma
COLO 205 colon = test system: COLO 205 colon
KM20L2 colon = test system: KM20L2 colon
NCI-H522 lung = test system: NCI-H522 lung
SN12C renal = test system: SN12C renal
UACC-257 melanoma = test system: UACC-257 melanoma
TK-10 renal = test system: TK-10 renal
M19-MEL melanoma = test system: M19-MEL melanoma
M14 melanoma = test system: M14 melanoma
IGROV1 ovarian = test system: IGROV1 ovarian
RPMI-8226 leukemia = test system: RPMI-8226 leukemia
NCI-H226 lung = test system: NCI-H226 lung
UACC-62 melanoma = test system: UACC-62 melanoma
MOLT-4 leukemia = test system: MOLT-4 leukemia
NCI-H460 lung = test system: NCI-H460 lung
LOX IMVI melanoma = test system: LOX IMVI melanoma
NCI-H23 lung = test system: NCI-H23 lung
CCRF-CEM leukemia = test system: CCRF-CEM leukemia
DLD-1 colon = test system: DLD-1 colon
KM12 colon = test system: KM12 colon
HCT-15 colon = test system: HCT-15 colon
OVCAR-3 ovarian = test system: OVCAR-3 ovarian
SNB-19 CNS = test system: SNB-19 CNS
HT29 colon = test system: HT29 colon
ACHN renal = test system: ACHN renal
CAKI-1 renal = test system: CAKI-1 renal
HL-60(TB) leukemia = test system: HL-60(TB) leukemia
DMS 114 small cell lung = test system: DMS 114 small cell lung
786-0 renal = test system: 786-0 renal
A498 renal = test system: A498 renal
SW-620 colon = test system: SW-620 colon
OVCAR-5 ovarian = test system: OVCAR-5 ovarian
EKVX NSCLC = test system: EKVX NSCLC
XF 498 CNS = test system: XF 498 CNS
MALME-3M melanoma = test system: MALME-3M melanoma
LXFL 529 NSCLC = test system: LXFL 529 NSCLC
RXF-631 renal = test system: RXF-631 renal
A549 NSCLC = test system: A549 NSCLC
HCT-116 colon = test system: HCT-116 colon
HOP-62 NSCLC = test system: HOP-62 NSCLC
SF-539 CNS = test system: SF-539 CNS
U251 CNS = test system: U251 CNS
K-562 leukemia = test system: K-562 leukemia
SNB-78 CNS = test system: SNB-78 CNS
SNB-75 CNS = test system: SNB-75 CNS
SK-MEL-28 melanoma = test system: SK-MEL-28 melanoma
RXF 393 renal = test system: RXF 393 renal
SR leukemia = test system: SR leukemia
HOP-18 NSCLC = test system: HOP-18 NSCLC
HOP-92 NSCLC = test system: HOP-92 NSCLC
UO-31 renal = test system: UO-31 renal

## COC(=O)[C@]1(C)CCC[C@]2(C)C3CC4OOC3(C=C4C(C)(C)O)CCC21 (some centres undefined)
SK-MEL-2 melanoma
  TGI: > 100 µM
SF-295 CNS
  TGI: > 100 µM
SF-268 CNS
  TGI: > 100 µM
SK-OV-3 ovarian
  TGI: > 100 µM
OVCAR-4 ovarian
  TGI: > 100 µM
OVCAR-8 ovarian
  TGI: > 100 µM
SK-MEL-5 melanoma
  TGI: > 100 µM
COLO 205 colon
  TGI: > 100 µM
KM20L2 colon
  TGI: > 100 µM
NCI-H522 lung
  TGI: 47.3 µM
SN12C renal
  TGI: > 100 µM
UACC-257 melanoma
  TGI: > 100 µM
TK-10 renal
  TGI: > 100 µM
M19-MEL melanoma
  TGI: > 100 µM
M14 melanoma
  TGI: > 100 µM
IGROV1 ovarian
  TGI: > 100 µM
RPMI-8226 leukemia
  TGI: 37.3 µM
NCI-H226 lung
  TGI: > 100 µM
UACC-62 melanoma
  TGI: > 100 µM
MOLT-4 leukemia
  TGI: 67.3 µM
NCI-H460 lung
  TGI: > 100 µM
LOX IMVI melanoma
  TGI: > 100 µM
NCI-H23 lung
  TGI: > 100 µM
CCRF-CEM leukemia
  TGI: 57.8 µM
DLD-1 colon
  TGI: > 100 µM
KM12 colon
  TGI: > 100 µM
HCT-15 colon
  TGI: > 100 µM
OVCAR-3 ovarian
  TGI: > 100 µM
SNB-19 CNS
  TGI: > 100 µM
HT29 colon
  TGI: 56.9 µM
ACHN renal
  TGI: > 100 µM
CAKI-1 renal
  TGI: > 100 µM
HL-60(TB) leukemia
  TGI: 32 µM
DMS 114 small cell lung
  TGI: > 100 µM
786-0 renal
  TGI: > 100 µM
A498 renal
  TGI: > 100 µM
SW-620 colon
  TGI: > 100 µM
OVCAR-5 ovarian
  TGI: > 100 µM
EKVX NSCLC
  TGI: > 100 µM
XF 498 CNS
  TGI: 46.7 µM
MALME-3M melanoma
  TGI: > 100 µM
LXFL 529 NSCLC
  TGI: 65.6 µM
RXF-631 renal
  TGI: > 100 µM
A549 NSCLC
  TGI: > 100 µM
HCT-116 colon
  TGI: > 100 µM
HOP-62 NSCLC
  TGI: > 100 µM
SF-539 CNS
  TGI: > 100 µM
U251 CNS
  TGI: > 100 µM
K-562 leukemia
  TGI: 64.3 µM
SNB-78 CNS
  TGI: > 100 µM

## O=C1C(c2ccccc2)=[N+]([O-])c2ccc(Cl)cc21
SK-MEL-2 melanoma
  TGI: > 100 µM
SF-295 CNS
  TGI: > 100 µM
SF-268 CNS
  TGI: 62.4 µM
SK-OV-3 ovarian
  TGI: > 100 µM
OVCAR-8 ovarian
  TGI: 30.5 µM
SK-MEL-5 melanoma
  TGI: 35.2 µM
COLO 205 colon
  TGI: 28.9 µM
KM20L2 colon
  TGI: > 100 µM
NCI-H522 lung
  TGI: 31 µM
SN12C renal
  TGI: 67.4 µM
UACC-257 melanoma
  TGI: 46.8 µM
TK-10 renal
  TGI: 77.9 µM
M19-MEL melanoma
  TGI: 42.1 µM
M14 melanoma
  TGI: > 100 µM
IGROV1 ovarian
  TGI: 57 µM
RPMI-8226 leukemia
  TGI: > 100 µM
NCI-H226 lung
  TGI: 49.9 µM
UACC-62 melanoma
  TGI: 35 µM
MOLT-4 leukemia
  TGI: 81.6 µM
SNB-75 CNS
  TGI: > 100 µM
NCI-H460 lung
  TGI: > 100 µM
LOX IMVI melanoma
  TGI: 32.7 µM
NCI-H23 lung
  TGI: > 100 µM
CCRF-CEM leukemia
  TGI: > 100 µM
DLD-1 colon
  TGI: 51.3 µM
SK-MEL-28 melanoma
  TGI: 48.8 µM
KM12 colon
  TGI: > 100 µM
HCT-15 colon
  TGI: 64.2 µM
OVCAR-3 ovarian
  TGI: 59.9 µM
SNB-19 CNS
  TGI: > 100 µM
HT29 colon
  TGI: 56.1 µM
ACHN renal
  TGI: 56.7 µM
HL-60(TB) leukemia
  TGI: 38.5 µM
DMS 114 small cell lung
  TGI: 25.6 µM
RXF 393 renal
  TGI: 29.1 µM
786-0 renal
  TGI: > 100 µM
A498 renal
  TGI: > 100 µM
SW-620 colon
  TGI: 93.3 µM
OVCAR-5 ovarian
  TGI: 61.5 µM
EKVX NSCLC
  TGI: 47.3 µM
XF 498 CNS
  TGI: 35.8 µM
MALME-3M melanoma
  TGI: 61.8 µM
SR leukemia
  TGI: > 100 µM
LXFL 529 NSCLC
  TGI: 34.9 µM
RXF-631 renal
  TGI: 86.2 µM
HOP-18 NSCLC
  TGI: > 100 µM
A549 NSCLC
  TGI: > 100 µM
HCT-116 colon
  TGI: 34.7 µM
HOP-92 NSCLC
  TGI: 96 nM
UO-31 renal
  TGI: > 100 µM
HOP-62 NSCLC
  TGI: > 100 µM
SF-539 CNS
  TGI: 38.5 µM
U251 CNS
  TGI: 65.1 µM
K-562 leukemia
  TGI: > 100 µM
